Reference: patent US20070212408A1, “Stable Pharmaceutical Composition Containing Benzimidazole Derivatives and Method of Manufacturing the Same” (priority 2004, published 2007)

Legend:
[1] = Storage stability test of inclusion complexes containing lansoprazole (Test Example 3), HPLC content; type: physicochemical; details: 60° C., 75% RH, relative to initial content
[2] = Storage stability test of inclusion complexes containing lansoprazole (Test Example 1), HPLC content; type: physicochemical; details: 60° C., 75% RH

Compound: Cc1c(OCC(F)(F)F)ccnc1C[S+]([O-])c1nc2ccccc2[nH]1 (stereo not drawn) [lansoprazole]
- Content after 1 wk (%) ([1]; 1 wk): 96.62%
- Content after 2 wk (%) ([1]; 2 wk): 76.88%
- Content after 1 wk (%) ([2]; 1 wk, relative to initial content, HPLC): 96.62%
- Content after 2 wk (%) ([2]; 2 wk, relative to initial content, HPLC): 76.88%
- Color Change after 4 wk ([2]; 4 wk): Dark brown
- Content after 4 wk (%) ([2]; 4 wk, relative to initial content, HPLC): Not detected
